According to patent publication US10214492B2, “Heterocyclic inhibitors of MCT4” (Vettore, LLC, priority 2016, dated 2019):

What was measured:
MCT4 = MCT4 (Homo sapiens (Human), UniProt O15427); assay: Assay 3: MCT4-mediated lactate transport in MDA-MB-231 breast cancer cells; format: cell-based; conditions: MDA-MB-231 cells; lactate transport
Outline: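 Read-out is BCECF fluorescence tracking the intracellular pH shift from MCT4-mediated lactate/H+ co-transport. Before measurement, MDA-MB-231 cells take up BCECF-AM for 5 min at 37° C, then are washed into Tyrode's Solution, pH 7.4.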

MCT1 = MCT1 (Homo sapiens (Human), UniProt P53985); assay: Assay 4: MCT1-mediated lactate transport in BT20 breast cancer cells; format: cell-based; conditions: Table 27
MCT1, sequence (P53985 whole entry): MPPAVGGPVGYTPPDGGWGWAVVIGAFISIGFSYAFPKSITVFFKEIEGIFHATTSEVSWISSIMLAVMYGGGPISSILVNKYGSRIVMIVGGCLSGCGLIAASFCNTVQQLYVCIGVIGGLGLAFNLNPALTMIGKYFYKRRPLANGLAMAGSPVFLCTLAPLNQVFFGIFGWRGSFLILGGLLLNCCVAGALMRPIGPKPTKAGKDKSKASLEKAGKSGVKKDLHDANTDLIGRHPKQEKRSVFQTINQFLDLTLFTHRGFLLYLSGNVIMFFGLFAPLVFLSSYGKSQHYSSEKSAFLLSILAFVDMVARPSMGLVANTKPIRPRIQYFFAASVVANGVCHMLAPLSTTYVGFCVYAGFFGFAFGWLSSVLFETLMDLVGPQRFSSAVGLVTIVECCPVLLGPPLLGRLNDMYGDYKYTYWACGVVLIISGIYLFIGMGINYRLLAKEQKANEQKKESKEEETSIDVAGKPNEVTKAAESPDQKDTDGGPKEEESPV
MCT1, sequence (P35613 140-385 partner): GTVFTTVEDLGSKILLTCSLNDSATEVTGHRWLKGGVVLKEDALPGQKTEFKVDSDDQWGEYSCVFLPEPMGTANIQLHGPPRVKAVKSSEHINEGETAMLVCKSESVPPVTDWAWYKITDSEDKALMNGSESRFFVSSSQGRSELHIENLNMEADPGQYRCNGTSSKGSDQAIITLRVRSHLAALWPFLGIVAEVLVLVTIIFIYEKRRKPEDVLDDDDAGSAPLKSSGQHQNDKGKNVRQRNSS
Outline: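 Transport started with 10 mM L-lactate on BCECF-loaded BT20 cells in Tyrode's Solution, pH 7.4. Dye loading: BCECF-AM ester (30 mM DMSO stock), 5 min at 37° C, then one wash.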

[1] = Metabolic stability in human liver microsomes (in vitro t1/2); format: in vitro ADME; conditions: for Human microsome % 60 min: human liver microsomes; for half-life at 2 µM: read-out: Human microsome t1/2, min
Experimental: (§1) The following are assays that may be used to evaluate the metabolic stability of compounds of Formula (I) in human, rat, or mouse microsomes. The assays follow a common procedure recited below. 1. […] Two separated experiments were performed as follows. a) With NADPH: 10 μL of 20 mg/mL liver microsomes and 40 μL of 10 mM NADPH were added to the incubations. […] The final concentration of microsomes was 0.5 mg/mL. 3. The reaction was started with the addition of 4 μL of 200 μM control compound or test compound solutions. Verapamil was used as positive control in this study. The final concentration of test compound or control compound was 2 μM. 4. Aliquots of 50 μL were taken from the reaction solution at 0, 15, 30, 45 and 60 min. […] Samples were centrifuged at 3,220 g for 40 minutes. A 90 μL aliquot of the supernatant was mixed with 90 μL of ultra-pure H2O and then used for LC-MS/MS analysis. 5. Data analysis. All calculations were carried out using Microsoft Excel. Peak areas were determined from extracted ion chromatograms. The slope value, k, was determined by linear regression of the natural logarithm of the remaining percentage of the parent drug vs. incubation time curve. The in vitro half-life (in vitro t1/2) was determined from the slope value: in vitro t1/2=−(0.693)/k.

[2] = Metabolic stability in rat liver microsomes (in vitro t1/2); format: in vitro ADME; conditions: for half-life at 2 µM: rat liver microsomes 0.5 mg/mL, 2 μM compound, read-out: Rat microsome t1/2, min; for Rat microsome % 60 min: rat liver microsomes
Experimental: as §1

[3] = Metabolic stability in mouse liver microsomes (in vitro t1/2); format: in vitro ADME; conditions: for half-life at 2 µM: mouse liver microsomes 0.5 mg/mL, 2 μM compound, read-out: Mouse microsome t1/2, min; for Mouse microsome % 60 min: mouse liver microsomes
Experimental: as §1

[4] = Pharmacokinetic assay in rat (IV 3 mg/kg, PO 10 mg/kg); format: in vivo; conditions: Male Sprague-Dawley rat; for Rat F: oral bioavailability; for Rat F / half-life: PO 10 mg/kg; for half-life / Vd: plasma; for half-life: read-out: Rat t1/2 (converted); for Vd: volume of distribution, read-out: Rat Vss
Description: The following are assays that may be used to evaluate the pharmacokinetic properties of Formula (I) in mouse or rat. The assays follow a common procedure recited below.
1. […] For PO (oral gavage), DMSO/PEG400 (10:90). Formulations freshly prepared on the day of dosing or prior to dosing. Storage at room temperature.
2. Test Species: For Mouse: Male CD1 strain, approximately 6-8 weeks in age, approximately 20-30 g. For Rat: Male Sprague-Dawley strain, approximately 6-8 weeks in age, approximately 200-300 g.
3. Dose Level: For IV, 3 mg/kg. For PO, 10 mg/kg.
4. Number of animals: 3 per assay.
5. PK time points: For IV (plasma): 5 min, 15 min, 1, 2, 4, 6, 8, 24 h post dose. For PO (plasma): 15 min, 30 min, 1, 2, 4, 6, 8, 24 h post dose.
6. Blood Sample Collection and Processing. Blood was collected (˜0.2 mL per time point) from jugular vein. Blood of each sample was transferred into plastic micro centrifuge tubes containing anticoagulant of EDTA-K2. Blood samples were centrifuged at 2,000 g for 5 minutes at 4° C. to obtain plasma.
7. Samples Analysis: Plasma samples were analyzed using LC/MS/MS method, and pharmacokinetic parameters (half-life: t1/2; oral bioavailability: F; volume of distribution: Vss).

[5] = human liver microsomes 0.5 mg/mL, 2 μM compound

MCT4, sequence (O15427 whole entry, looked up): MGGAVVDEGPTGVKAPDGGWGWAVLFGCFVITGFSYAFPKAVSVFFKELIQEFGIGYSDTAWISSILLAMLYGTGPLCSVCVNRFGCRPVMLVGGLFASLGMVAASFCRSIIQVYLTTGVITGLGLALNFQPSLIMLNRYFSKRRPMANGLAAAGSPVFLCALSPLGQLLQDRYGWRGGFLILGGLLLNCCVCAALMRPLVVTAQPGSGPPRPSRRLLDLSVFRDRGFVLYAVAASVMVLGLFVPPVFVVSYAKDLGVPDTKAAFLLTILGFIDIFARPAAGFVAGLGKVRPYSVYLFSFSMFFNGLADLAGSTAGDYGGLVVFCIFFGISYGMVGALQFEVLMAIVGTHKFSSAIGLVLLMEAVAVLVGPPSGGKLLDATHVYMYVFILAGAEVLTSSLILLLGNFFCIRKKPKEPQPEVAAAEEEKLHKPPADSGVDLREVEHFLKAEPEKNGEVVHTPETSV
MCT4, sequence (P35613 whole entry partner, looked up): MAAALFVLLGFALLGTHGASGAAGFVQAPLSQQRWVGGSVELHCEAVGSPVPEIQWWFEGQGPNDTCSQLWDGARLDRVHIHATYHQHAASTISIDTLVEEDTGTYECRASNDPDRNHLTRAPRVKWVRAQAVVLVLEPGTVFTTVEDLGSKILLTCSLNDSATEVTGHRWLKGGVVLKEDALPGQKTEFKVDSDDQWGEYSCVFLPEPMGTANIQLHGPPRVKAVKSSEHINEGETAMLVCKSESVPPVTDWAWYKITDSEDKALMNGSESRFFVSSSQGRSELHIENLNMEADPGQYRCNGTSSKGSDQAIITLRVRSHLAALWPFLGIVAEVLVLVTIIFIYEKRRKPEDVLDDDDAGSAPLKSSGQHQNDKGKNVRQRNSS

SMILES	IC50 (MCT4) [nM]	IC50 (MCT1) [nM]	Human microsome t1/2, min [1, 5]	Human microsome % 60 min [1] [%]	half-life at 2 µM [2] [h]	Rat microsome % 60 min [2] [%]	half-life at 2 µM [3] [h]	Mouse microsome % 60 min [3] [%]	half-life at 2 µM [1, 5] [h]	Rat F [4] [%]	half-life [4] [h]	Vd [4] [L/kg]
Cc1ccccc1-n1nc(COC(C)(C)C(=O)O)cc1-c1cccc(OC2CC2)c1 [Example 188, 2-([5-(3-Cyclopropoxyphenyl)-1-(2-methyl-phenyl)-1H-pyrazol-3-yl]methoxy)-2-methylpropanoic acid]	7.5	15000	∞	101	8.17	87	23.3	92	–	–	–	–
CC[C@@](C)(OCc1cc(-c2cccc(OC)c2)n(Cc2ccccc2Cl)n1)C(=O)O [Example 121, (2R)-2-([1-[(2-chlorophenyl)methyl]-5-(3-methoxyphenyl)-1H-pyrazol-3-yl]methoxy)-2-methylbutanoic Acid]	8	21000	–	82	1.43	61	3.1	81	3.3	–	–	–
COc1cccc(-c2cc(COC(C)(C)C(=O)O)nn2Cc2ccccc2OC(C)C)c1 [Example 140, 2-([5-(3-Methoxyphenyl)-1-[[2-(propan-2-yloxy)phenyl]methyl]-1H-pyrazol-3-yl)methoxy)-2-methylpropanoic acid]	8.3	16000	–	67	0.983	48	1.07	62	1.82	–	–	–
CC(C)COc1ncc(-c2cc(COC(C)(C)C(=O)O)nn2Cc2ccccc2Cl)s1 [Example 132, 2-([1-[(2-Chlorophenyl)methyl]-5-[2-(2-methylpropoxy)-1,3-thiazol-5-yl]-1H-pyrazol-3-yl]methoxy)-2-methylpropanoic acid]	8.6	8200	–	70	1.87	70	1.63	64	1.93	–	–	–
Cn1ncc2ccc(-c3cc(COC(C)(C)C(=O)O)nn3Cc3ccccc3Cl)cc21 [Example 226, 2-([1-[(2-Chlorophenyl)methyl]-5-(1-methyl-1H-indazol-6-yl)-1H-pyrazol-3-yl]-methoxy)-2-methylpropanoic acid]	15	54000	–	95	7.58	88	11.4	95	7.8	–	–	–
CC(C)Oc1ncc(-c2cc(COC(C)(C)C(=O)O)nn2Cc2ccccc2Cl)s1 [Example 133, 2-([1-[(2-Chlorophenyl)methyl]-5-[2-(propan-2-yloxy)-1,3-thiazol-5-yl]-1H-pyrazol-3-yl]methoxy)-2-methylpropanoic acid]	13	> 33000	–	97	6.73	91	5.73	90	16.8	–	–	–
CCOc1ccccc1Cn1nc(COC(C)(C)C(=O)O)cc1-c1cccc(OC2CC2)c1 [Example 201, 2-([5-(3-Cyclopropoxyphenyl)-1-[(2-ethoxy-phenyl)methyl]-1H-pyrazol-3-yl]methoxy)-2-methylpropanoic acid]	7.2	15000	–	58	0.75	39	1.38	58	1.38	–	–	–

Compounds with a lower IC50 (MCT4), results first:

IC50 (MCT4) [nM]	IC50 (MCT1) [nM]	Human microsome t1/2, min [1, 5]	Human microsome % 60 min [1] [%]	half-life at 2 µM [2] [h]	Rat microsome % 60 min [2] [%]	half-life at 2 µM [3] [h]	Mouse microsome % 60 min [3] [%]	half-life at 2 µM [1, 5] [h]	Rat F [4] [%]	half-life [4] [h]	Vd [4] [L/kg]	SMILES
5.6	98000	–	77	3.02	83	1.55	63	3.02	98	3	0.38	COc1cc(OC)cc(-c2cc(COC(C)(C)C(=O)O)nn2-c2ccccc2N2CCC2)c1 [Example 251, 2-((1-(2-(Azetidin-1-yl)phenyl)-5-(3,5-dimethoxyphenyl)-1H-pyrazol-3-yl)methoxy)-2-methylpropanoic acid]
3.5	26000	–	80	3.42	82	4.05	84	3.45	–	–	–	CCOc1ccccc1Cn1nc(COC(C)(C)C(=O)O)cc1-c1ccc2cnn(CC)c2c1 [Example 198, 2-([1-[(2-Ethoxyphenyl)methyl]-5-(1-ethyl-1H-indazol-6-yl)-1H-pyrazol-3-yl]-methoxy)-2-methylpropanoic acid]
3.1	32000	–	65	1.82	69	2.8	81	1.58	52	4.7	1.7	CCCn1ncc2ccc(-c3cc(COC(C)(C)C(=O)O)nn3-c3ccccc3N3CCC3)cc21 [Example 246, 2-([1-[2-(Azetidin-1-yl)phenyl]-5-(1-propyl-1H-indazol-6-yl)-1H-pyrazol-3-yl]methoxy)-2-methylpropanoic acid]
2.5	27000	–	66	2.42	72	2.08	70	1.92	–	–	–	CC(C)(OCc1cc(-c2cccc(OCC3CCC3)c2)n(-c2ccccc2Cl)n1)C(=O)O [Example 178, 2-([1-(2-Chlorophenyl)-5-[3-(Cyclobutyl-methoxy)phenyl]-1H-pyrazol-3-yl]-methoxy)-2-methylpropanoic acid]
1.4	35000	–	75	10.6	90	5.57	87	3.07	–	–	–	CC(C)(C)COc1cccc(-c2cc(COC(C)(C)C(=O)O)nn2-c2ccccc2Cl)c1 [Example 177, 2-([1-(2-chlorophenyl)-5-[3-(2,2-dimethyl-propoxy)phenyl]-1H-pyrazol-3-yl]methoxy)-2-methylpropanoic acid]
1.3	86000	–	66	1.68	71	2.03	73	1.65	–	–	–	CC(C)(OCc1cc(-c2cccc(OC3CC3)c2)n(-c2ccc(F)cc2N2CCC2)n1)C(=O)O [Example 183, 2-([1-[2-(Azetidin-1-yl)-4-fluorophenyl]-5-(3-cyclopropoxyphenyl)-1H-pyraz.ol-3-yl]-methoxy)-2-methylpropanoic acid]
